Experimental findings from patent US10561703B2, “Method of modulating sex hormone levels using a sex hormone secretion modulator” (GEMVAX & KAEL CO., LTD., priority 2013, dated 2020) are described below.

Assay [1] has as its system WPMY-1. Put plainly: Cell proliferation (CCK-8) in prostate mesenchymal cell line. The class given is cell-based. On the procedure:
(§1) When testosterone is injected into the body, testosterone becomes dihydrotestosterone (DHT) due to 5α-reductase, which stimulates the proliferation of prostate cells and induces benign prostatatic hyperplasia (BPH). Based on these facts, a PEP-1 (GV1001) injection experiment was performed for the inhibition of proliferation of prostatic cells in the following manner: The cell lines were mesenchymal cell lines (WPMY-1) and epithelial cell lines (RWPE-1) of prostates obtained from BPH animal models. […] Observation of changes in the proliferation was performed by suctioning a culture medium, adding 10 μL of CCK-8 solution to each well, and measuring an optical density at 450 nm for 1 hour to about 4 hours.

The test system of assay [2] is RWPE-1. Put plainly: Cell proliferation (CCK-8) in prostate epithelial cell line. In kind it is cell-based. On the procedure: as §1

“EARPALLTSRLRFIPK (listed as Homo sapiens) [PEP-1, hormone secretion modulator / GnRH analog]”: the “Cell proliferation (optical density at 450 nm) versus untreated cells” value in assay [1] (WPMY-1, 100 and 200 μM GV1001, no DHT) is “did not show a substantial difference in optical densities”; in assay [2] (RWPE-1, 100 and 200 μM GV1001, no DHT), “did not show a substantial difference in optical densities”. Further, the “Inhibition of DHT-induced cell proliferation” value in assay [1] (WPMY-1, 100 and 200 μM GV1001 with 25 nM DHT) is recorded as “substantial inhibition effects on proliferation”; in assay [2] (RWPE-1, 100 and 200 μM GV1001 with 25 nM DHT), “substantial inhibition effects on proliferation”.
